Assay results reported in patent US20240270740A1, “INHIBITORS OF CYCLIC GMP-AMP SYNTHASE AND USES THEREOF” (Ventus Therapeutics U.S., Inc., priority 2022, published 2024).

Molecular target: hcGAS (Homo sapiens, UniProt Q8N884)
Assay: hcGAS Kinase-Glo assay (ATP depletion)
Assay type: biochemical
Conditions: 40 nM hcGAS, 100 μM ATP, 100 μM GTP, 25 nM dsDNA, 3 h incubation
Procedure: cGAS catalyzes the cyclization of ATP and GTP to produce cGAMP, which is the activating ligand of STING. Human cGAS (hcGAS) inhibition can thus be quantified by measuring how much cGAMP is formed either indirectly, by monitoring ATP-depletion as in the hcGAS Kinase-Glo assay (as described below), or directly, such as using the hcGAS LCMS assay (as described below).
(i) hcGAS Kinase-Glo Assay
Compounds were tested for their human-cGAS […] inhibition activity using the methodology reported in Lama et al., “Development of human cGAS-specific small molecule inhibitors for repression of dsDNA-triggered interferon expression”, Nature Communications 10, Article number: 2261 (2019), with slight changes to some conditions as shown in Table B.
The results of the assay, expressed in IC50 values, are reported in Table D with the following designations: A represents an IC50 value<0.01 μM; B represents an IC50 value≥0.01 μM and <0.03 μM; C represents an IC50 value≥0.03 μM and <0.1 μM; D represents an IC50 value≥0.1.

Sequence of hcGAS (Q8N884 whole entry): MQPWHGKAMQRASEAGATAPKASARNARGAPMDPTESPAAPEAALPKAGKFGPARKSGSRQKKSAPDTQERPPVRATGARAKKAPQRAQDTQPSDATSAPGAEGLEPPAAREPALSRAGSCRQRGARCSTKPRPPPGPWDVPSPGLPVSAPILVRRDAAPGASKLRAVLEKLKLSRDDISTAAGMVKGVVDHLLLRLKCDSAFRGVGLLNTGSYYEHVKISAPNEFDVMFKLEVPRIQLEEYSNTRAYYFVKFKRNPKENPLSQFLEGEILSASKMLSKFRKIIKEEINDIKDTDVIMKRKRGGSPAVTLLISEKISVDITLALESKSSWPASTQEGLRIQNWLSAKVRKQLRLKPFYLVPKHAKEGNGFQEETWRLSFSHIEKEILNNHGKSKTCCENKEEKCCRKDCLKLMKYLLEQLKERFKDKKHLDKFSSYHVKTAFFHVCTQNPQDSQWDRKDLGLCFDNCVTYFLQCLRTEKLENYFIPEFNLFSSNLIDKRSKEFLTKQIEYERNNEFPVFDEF

Structure (SMILES)	IC50
COc1c(N[C@H]2CCC[C@@H]2O)cc(C(=O)Nc2nnc(-n3nccc3C)s2)oc1=O (racemic) [Rac-15, 4-(((1S,2S)-2-hydroxycyclopentyl)amino)-3-methoxy-N-(5-(5-methyl-1H-pyrazol-1-yl)-1,3,4-thiadiazol-2-yl)-2-oxo-2H-pyran-6-carboxamide]	30 to 100 nM
COc1c(N[C@@H]2CC[C@H]2O)cc(C(=O)Nc2nnc(-n3nccc3C)s2)oc1=O (racemic) [Rac-37, 4-(((1R,2R)-2-hydroxycyclobutyl)amino)-3-methoxy-N-(5-(5-methyl-1H-pyrazol-1-yl)-1,3,4-thiadiazol-2-yl)-2-oxo-2H-pyran-6-carboxamide]	10 to 30 nM
COCC1CCN(c2cc(C(=O)Nc3nnc(-n4nccc4C)s3)oc(=O)c2OC)CC1 [Compound 2, 3-methoxy-4-(4-(methoxymethyl)piperidin-1-yl)-N-(5-(5-methyl-1H-pyrazol-1-yl)-1,3,4-thiadiazol-2-yl)-2-oxo-2H-pyran-6-carboxamide]	10 to 30 nM
COc1c(N[C@H]2C[C@@H](OC)C2)cc(C(=O)Nc2nnc(-n3nccc3C)s2)oc1=O [Compound 9, 3-methoxy-4-(((1,3-cis)-3-methoxycyclobutyl)amino)-N-(5-(5-methyl-1H-pyrazol-1-yl)-1,3,4-thiadiazol-2-yl)-2-oxo-2H-pyran-6-carboxamide]	30 to 100 nM
COc1c(N2CCC(CO)CC2)cc(C(=O)Nc2nnc(-n3nccc3C)s2)oc1=O [Compound 12, 4-(4-(hydroxymethyl)piperidin-1-yl)-3-methoxy-N-(5-(5-methyl-1H-pyrazol-1-yl)-1,3,4-thiadiazol-2-yl)-2-oxo-2H-pyran-6-carboxamide]	10 to 30 nM
COc1c(N[C@H]2C[C@H](O)C2)cc(C(=O)Nc2nnc(-n3nccc3C)s2)oc1=O [Compound 16, 4-(((1,3-trans)-3-hydroxycyclobutyl)amino)-3-methoxy-N-(5-(5-methyl-1H-pyrazol-1-yl)-1,3,4-thiadiazol-2-yl)-2-oxo-2H-pyran-6-carboxamide]	30 to 100 nM
COc1c(N2CCC(OC)CC2)cc(C(=O)Nc2nnc(-n3nccc3C)s2)oc1=O [Compound 19, 3-methoxy-4-(4-methoxypiperidin-1-yl)-N-(5-(5-methyl-1H-pyrazol-1-yl)-1,3,4-thiadiazol-2-yl)-2-oxo-2H-pyran-6-carboxamide]	10 to 30 nM
COc1c(N[C@H](C)CO)cc(C(=O)Nc2nnc(-n3nccc3C)s2)oc1=O [Compound 25, (R)-4-((1-hydroxypropan-2-yl)amino)-3-methoxy-N-(5-(5-methyl-1H-pyrazol-1-yl)-1,3,4-thiadiazol-2-yl)-2-oxo-2H-pyran-6-carboxamide]	30 to 100 nM
COc1c(NC2CCS(=O)(=O)CC2)cc(C(=O)Nc2nnc(-n3nccc3C)s2)oc1=O [Compound 29, 4-((1,1-dioxidotetrahydro-2H-thiopyran-4-yl)amino)-3-methoxy-N-(5-(5-methyl-1H-pyrazol-1-yl)-1,3,4-thiadiazol-2-yl)-2-oxo-2H-pyran-6-carboxamide]	30 to 100 nM
COCCCNc1cc(C(=O)Nc2nnc(-n3nccc3C)s2)oc(=O)c1OC [Compound 32, 5-methoxy-4-(3-methoxypropylamino)-N-(5-(5-methyl-1H-pyrazol-1-yl)-1,3,4-thiadiazol-2-yl)-6-oxo-6H-pyran-2-carboxamide]	30 to 100 nM
COc1c(N2CCC[C@@H]2CO)cc(C(=O)Nc2nnc(-n3nccc3C)s2)oc1=O [Compound 34, (R)-4-(2-(hydroxymethyl)pyrrolidin-1-yl)-5-methoxy-N-(5-(5-methyl-1H-pyrazol-1-yl)-1,3,4-thiadiazol-2-yl)-6-oxo-6H-pyran-2-carboxamide]	30 to 100 nM
COc1c(NCCCO)cc(C(=O)Nc2nnc(-n3nccc3C)s2)oc1=O [Compound 35, 4-((3-hydroxypropyl)amino)-3-methoxy-N-(5-(5-methyl-1H-pyrazol-1-yl)-1,3,4-thiadiazol-2-yl)-2-oxo-2H-pyran-6-carboxamide]	10 to 30 nM
COC[C@@H]1CCCN1c1cc(C(=O)Nc2nnc(-n3nccc3C)s2)oc(=O)c1OC [Compound 39, (S)-3-methoxy-4-(2-(methoxymethyl)pyrrolidin-1-yl)-N-(5-(5-methyl-1H-pyrazol-1-yl)-1,3,4-thiadiazol-2-yl)-2-oxo-2H-pyran-6-carboxamide]	10 to 30 nM
COc1c(N2CCC[C@H]2CO)cc(C(=O)Nc2nnc(-n3nccc3C)s2)oc1=O [Compound 40, (S)-4-(2-(hydroxymethyl)pyrrolidin-1-yl)-3-methoxy-N-(5-(5-methyl-1H-pyrazol-1-yl)-1,3,4-thiadiazol-2-yl)-2-oxo-2H-pyran-6-carboxamide]	10 to 30 nM
COCC12CC(Nc3cc(C(=O)Nc4nnc(-n5nccc5C)s4)oc(=O)c3OC)(C1)C2 [Compound 44, 3-methoxy-4-((3-(methoxymethyl)bicyclo[1.1.1]pentan-1-yl)amino)-N-(5-(5-methyl-1H-pyrazol-1-yl)-1,3,4-thiadiazol-2-yl)-2-oxo-2H-pyran-6-carboxamide]	30 to 100 nM
COc1c(NC23CC(C#N)(C2)C3)cc(C(=O)Nc2nnc(-n3nccc3C)s2)oc1=O [Compound 45, 4-((3-cyanobicyclo[1.1.1]pentan-1-yl)amino)-3-methoxy-N-(5-(5-methyl-1H-pyrazol-1-yl)-1,3,4-thiadiazol-2-yl)-2-oxo-2H-pyran-6-carboxamide]	10 to 30 nM
COc1c(N2CCC(O)CC2)cc(C(=O)Nc2nnc(-n3nccc3C)s2)oc1=O [Compound 46, 4-(4-hydroxypiperidin-1-yl)-3-methoxy-N-(5-(5-methyl-1H-pyrazol-1-yl)-1,3,4-thiadiazol-2-yl)-2-oxo-2H-pyran-6-carboxamide]	10 to 30 nM
COc1c(N2CC[C@H](CO)C2)cc(C(=O)Nc2nnc(-n3nccc3C)s2)oc1=O [Compound 58, (S)-4-(3-(hydroxymethyl)pyrrolidin-1-yl)-3-methoxy-N-(5-(5-methyl-1H-pyrazol-1-yl)-1,3,4-thiadiazol-2-yl)-2-oxo-2H-pyran-6-carboxamide]	10 to 30 nM
COCCN(CCOC)c1cc(C(=O)Nc2nnc(-n3nccc3C)s2)oc(=O)c1OC [Compound 63, 4-(bis(2-methoxyethyl)amino)-3-methoxy-N-(5-(5-methyl-1H-pyrazol-1-yl)-1,3,4-thiadiazol-2-yl)-2-oxo-2H-pyran-6-carboxamide]	≥ 100 nM
COc1c(N[C@H]2C[C@@H](O)C2)cc(C(=O)Nc2nnc(-n3nccc3C)s2)oc1=O [Compound 65, 4-(((1,3-cis)-3-hydroxycyclobutyl)amino)-3-methoxy-N-(5-(5-methyl-1H-pyrazol-1-yl)-1,3,4-thiadiazol-2-yl)-2-oxo-2H-pyran-6-carboxamide]	30 to 100 nM
COc1c(N[C@H]2C[C@H](OC)C2)cc(C(=O)Nc2nnc(-n3nccc3C)s2)oc1=O [Compound 69, 3-methoxy-4-(((1,3-trans)-3-methoxycyclobutyl)amino)-N-(5-(5-methyl-1H-pyrazol-1-yl)-1,3,4-thiadiazol-2-yl)-2-oxo-2H-pyran-6-carboxamide]	10 to 30 nM
COc1c(N[C@@H]2CCS(=O)(=O)C2)cc(C(=O)Nc2nnc(-n3nccc3C)s2)oc1=O [Compound 82, (R)-4-((1,1-dioxidotetrahydrothiophen-3-yl)amino)-3-methoxy-N-(5-(5-methyl-1H-pyrazol-1-yl)-1,3,4-thiadiazol-2-yl)-2-oxo-2H-pyran-6-carboxamide]	30 to 100 nM
COC[C@H]1CCN(c2cc(C(=O)Nc3nnc(-n4nccc4C)s3)oc(=O)c2OC)C1 [Compound 87, (S)-3-methoxy-4-(3-(methoxymethyl)pyrrolidin-1-yl)-N-(5-(5-methyl-1H-pyrazol-1-yl)-1,3,4-thiadiazol-2-yl)-2-oxo-2H-pyran-6-carboxamide]	30 to 100 nM
COc1c(N2CC[C@@H](CO)C2)cc(C(=O)Nc2nnc(-n3nccc3C)s2)oc1=O [Compound 88, (R)-4-(3-(hydroxymethyl)pyrrolidin-1-yl)-3-methoxy-N-(5-(5-methyl-1H-pyrazol-1-yl)-1,3,4-thiadiazol-2-yl)-2-oxo-2H-pyran-6-carboxamide]	10 to 30 nM
COc1c(NCC(F)F)cc(C(=O)Nc2nnc(-n3nccc3C)s2)oc1=O [Compound 89, 4-((2,2-difluoroethyl)amino)-3-methoxy-N-(5-(5-methyl-1H-pyrazol-1-yl)-1,3,4-thiadiazol-2-yl)-2-oxo-2H-pyran-6-carboxamide]	10 to 30 nM
COc1c(NCC(F)(F)F)cc(C(=O)Nc2nnc(-n3nccc3C)s2)oc1=O [Compound 90, 3-methoxy-N-(5-(5-methyl-1H-pyrazol-1-yl)-1,3,4-thiadiazol-2-yl)-2-oxo-4-((2,2,2-trifluoroethyl)amino)-2H-pyran-6-carboxamide]	10 to 30 nM
COc1c(NC2COC2)cc(C(=O)Nc2nnc(-n3nccc3C)s2)oc1=O [Compound 104, 3-methoxy-N-(5-(5-methyl-1H-pyrazol-1-yl)-1,3,4-thiadiazol-2-yl)-4-(oxetan-3-ylamino)-2-oxo-2H-pyran-6-carboxamide]	30 to 100 nM
CNc1cc(C(=O)Nc2nnc(-n3nccc3C)s2)oc(=O)c1OC [Compound 105, 3-methoxy-N-(5-(5-methyl-1H-pyrazol-1-yl)-1,3,4-thiadiazol-2-yl)-4-(methylamino)-2-oxo-2H-pyran-6-carboxamide]	30 to 100 nM
COc1c(N[C@H]2COC[C@H]2O)cc(C(=O)Nc2nnc(-n3nccc3C)s2)oc1=O [Compound 113, 4-(((3S,4S)-4-hydroxytetrahydrofuran-3-yl)amino)-3-methoxy-N-(5-(5-methyl-1H-pyrazol-1-yl)-1,3,4-thiadiazol-2-yl)-2-oxo-2H-pyran-6-carboxamide]	10 to 30 nM
